Patent publication US20100234372A1, “SUBSTITUTED 2-MERCAPTOQUINOLINE-3-CARBOXAMIDES AS KCNQ2/3 MODULATORS” (GRUNENTHAL GMBH, priority 2009, published 2010)

Biological target: T1, KCNQ2/3 channels (Homo sapiens, UniProt O43525+O43526)
T1 construct: expressed in transfected cells; host or cells: CHO-K1 cells
Assay: Fluorescence assay using a voltage-sensitive dye (fluorimetry)
Format: cell-based
Conditions: for EC50: CHO-K1 cells expressing KCNQ2/3 channels; for Emax at 1 µM: 50 μM retigabine = 100%, CHO-K1 cells expressing KCNQ2/3, read-out: Fluorimetry % efficacy at 1 μM (50 μM retigabine = 100%)
Method: […] CHO-K1 cells expressing KCNQ2/3 channels are cultivated adherently at 37° C., 5% CO2 and 95% humidity in cell culture bottles (e.g. 80 cm^2 TC flasks, Nunc) with DMEM-high glucose (Sigma Aldrich, D7777) including 10% FCS (PAN Biotech, e.g. 3302-P270521) or alternatively MEM Alpha Medium (1×, liquid, Invitrogen, #22571), 10% foetal calf serum (FCS) (Invitrogen, #10270-106, heat-inactivated) and the necessary selection antibiotics.
Before being seeded out for the measurements, the cells are washed with a 1×DPBS buffer without Ca^2+/Mg^2+ (e.g. Invitrogen, #14190-094) and detached from the bottom of the culture vessel by means of Accutase (PAA Laboratories, #L11-007) (incubation with Accutase for 15 min at 37° C.). The cell count then present is determined using a CASY™ cell counter (TCC model, Scharfe System) in order subsequently to apply 20,000 to 30,000 cells/well/100 μl of the described nutrient medium, depending on density optimisation for the individual cell line, to 96-well measuring plates of the Corning™ CeIIBIND™ type (flat clear-bottom black polystyrene microplates, #3340). Incubation is then carried out for one hour at room temperature, without gassing or adjusting the humidity, followed by incubation for 24 hours at 37° C., 5% CO2 and 95% humidity.
The voltage-sensitive fluorescent dye from the Membrane Potential Assay Kit (Red™ bulk format part R8123 for FLIPR, MDS Analytical Technologies™) is prepared by dissolving the contents of a vessel of Membrane Potential Assay Kit Red Component A in 200 ml of extracellular buffer (ES buffer, 120 mM NaCl, 1 mM KCl, 10 mM HEPES, 2 mM CaCl2, 2 mM MgCl2, 10 mM glucose; pH 7.4). After removal of the nutrient medium, the cells are washed with 200 μl of ES buffer, then covered with a layer of 100 μl of the dye solution prepared above and incubated for 45 min at room temperature with exclusion of light.
The fluorescence measurements are carried out with a BMG Labtech FLUOstar™, BMG Labtech NOVOstar™ or BMG Labtech POLARstar™ instrument (525 nm excitation, 560 nm emission, bottom-read mode). After incubation of the dye, 50 μl of the substances to be tested in the desired concentrations, or 50 μl of ES buffer for control purposes, are introduced into separate cavities of the measuring plate and incubated for 30 min at room temperature whilst being shielded from light. The fluorescence intensity of the dye is then measured for 5 min and the fluorescence value F1 of each well is thus determined at a given, constant time. 15 μl of a […] KCl solution ([…]) are then added to each well. The change in fluorescence is subsequently measured until all relevant measured values have been obtained (mainly 5-30 min). At a given time after KCl application, a fluorescence value F2 is determined, in this case at the time of the fluorescence peak.
For calculation, the fluorescence intensity F2 is compared with the fluorescence intensity F1, and the agonistic activity of the target compound on the potassium channel is determined therefrom. F2 and F1 are calculated as follows: […]
is determined by adding to the reaction batch only the buffer solution instead of the substance to be tested, determining the value F1K of the fluorescence intensity, adding the potassium ions as described above and measuring a value F2K of the fluorescence intensity. Then F2K and F1K are calculated as follows: […]
Calculations of EC50 values are carried out with the aid of Prism v4.0 software (GraphPad Software™).

Compound | EC50 | Emax at 1 µM
CCSc1nc2cc(C(F)(F)F)ccc2c(C)c1C(=O)NCc1ccc(C(F)(F)F)cc1 [compound 55] | 149 nM | 167%
CCSc1nc2cc(C(F)(F)F)ccc2c(C)c1C(=O)NCCCC(C)C [compound 57] | 150 nM | 205%
CCSc1nc2cc(C(F)(F)F)ccc2c(C)c1C(=O)NCc1ccc(C)s1 [compound 69] | 858 nM | 123%
CCSc1nc2cc(C(F)(F)F)ccc2c(C)c1C(=O)NCc1cc(C)cs1 [compound 70] | 1460 nM | 114%
CCSc1nc2cc(C(F)(F)F)ccc2c(C)c1C(=O)NCc1ccc(Cl)s1 [compound 71] | 305 nM | 163%
CCSc1nc2cc(C(F)(F)F)ccc2c(C)c1C(=O)NCCc1cccs1 [compound 72] | 732 nM | 59%
CCSc1nc2cc(C(F)(F)F)ccc2c(C)c1C(=O)NCC1CC2CCC1C2 (stereo not drawn) [compound 73] | – | 25%
CCSc1nc2cc(C(F)(F)F)ccc2c(C)c1C(=O)NCc1ccccc1 [compound 74] | 163 nM | 128%
CCSc1nc2cc(C(F)(F)F)ccc2c(C)c1C(=O)NCc1ccccc1F [compound 75] | 71 nM | 88%
CCSc1nc2cc(C(F)(F)F)ccc2c(C)c1C(=O)NCc1ccccc1Cl [compound 78] | – | 33%
CCSc1nc2cc(C(F)(F)F)ccc2c(C)c1C(=O)NCc1ccc(Cl)cc1 [compound 80] | 148 nM | 135%
CCSc1nc2cc(C(F)(F)F)ccc2c(C)c1C(=O)NCc1ccccc1C [compound 81] | – | 28%
CCSc1nc2cc(C(F)(F)F)ccc2c(C)c1C(=O)NCc1ccc(C)cc1 [compound 83] | 242 nM | 130%
CCSc1nc2cc(C(F)(F)F)ccc2c(C)c1C(=O)NCc1ccccc1OC [compound 84] | – | 25%
CCSc1nc2cc(C(F)(F)F)ccc2c(C)c1C(=O)NCc1cc(F)cc(F)c1 [compound 87] | 144 nM | 159%
CSc1nc2cc(C(F)(F)F)ccc2c(C)c1C(=O)NCc1cccs1 [compound 88] | 212 nM | 154%
CCSc1nc2cc(C(F)(F)F)ccc2cc1C(=O)NCC(C)(C)C [compound 90] | 842 nM | 53%
CCSc1nc2ccccc2c(C)c1C(=O)NCc1cccs1 [compound 91] | 1210 nM | 50%
CCSc1nc2cc(C(C)(C)C)ccc2c(C)c1C(=O)NCc1ccc(F)cc1 [compound 96] | 808 nM | 101%
CCSc1nc2ccc(C)cc2c(C)c1C(=O)NCc1ccc(F)cc1 [compound 100] | 337 nM | 45%
CCSc1nc2ccc(C(F)(F)F)cc2c(C)c1C(=O)NCc1ccc(F)cc1 [compound 104] | – | 25%
CCSc1nc2cc(C(F)(F)F)ccc2c(C)c1C(=O)NCc1ccco1 [compound 110] | 89 nM | 183%
CCSc1nc2cc(C(F)(F)F)ccc2c(C)c1C(=O)NCc1ccc(C)o1 [compound 111] | 86 nM | 178%
CSc1nc2cc(C(F)(F)F)ccc2c(C)c1C(=O)NCc1ccc(F)cc1 [compound 115] | 136 nM | 150%
CCSc1nc2ccc(F)cc2c(C)c1C(=O)NCc1ccc(F)cc1 [compound 117] | 222 nM | 87%
CCSc1nc2cc(C(F)(F)F)ccc2c(C)c1C(=O)NCc1ccc(O)cc1 [compound 119] | 2750 nM | 72%
CCSc1nc2c(F)cccc2c(C)c1C(=O)NCc1ccc(F)cc1 [compound 121] | 334 nM | 90%
CCSc1nc2cccc(F)c2c(C)c1C(=O)NCc1ccc(F)cc1 [compound 124] | – | 8%

Second part, the molecule after the results:

EC50 | Emax at 1 µM | Compound
67 nM | 97% | CCSc1nc2cc(C(F)(F)F)ccc2c(C)c1C(=O)NCc1cccc(C(C)(C)C)c1 [compound 56]
124 nM | 116% | CCSc1nc2cc(C(F)(F)F)ccc2c(C)c1C(=O)NCc1cccc(Cl)c1 [compound 79]
219 nM | 108% | CCSc1nc2cc(C(F)(F)F)ccc2c(C)c1C(=O)NCc1cccc(C)c1 [compound 82]
413 nM | 89% | CCSc1nc2cc(C(F)(F)F)ccc2c(C)c1C(=O)NCc1cccc(OC)c1 [compound 85]
565 nM | 108% | CCSc1nc2cc(C(F)(F)F)ccc2c(C)c1C(=O)NCc1ccc(OC)cc1 [compound 86]
950 nM | 65% | CCSc1nc2ccccc2c(C)c1C(=O)NCc1cccc(F)c1 [compound 92]
88 nM | 157% | Cc1c(C(=O)NCc2cccc(F)c2)c(SC(C)(C)C)nc2cc(C(F)(F)F)ccc12 [compound 93]
627 nM | 96% | CCSc1nc2cc(C(C)(C)C)ccc2c(C)c1C(=O)NCc1cccc(F)c1 [compound 95]
622 nM | 60% | CCSc1nc2cc(OC)ccc2c(C)c1C(=O)NCc1cccc(F)c1 [compound 97]
404 nM | 70% | CCSc1nc2cc(OC)ccc2c(C)c1C(=O)NCc1ccc(F)cc1 [compound 98]
623 nM | 90% | CCSc1nc2ccc(C)cc2c(C)c1C(=O)NCc1cccc(F)c1 [compound 99]
– | 17% | CCSc1nc2ccc(OC)cc2c(C)c1C(=O)NCc1cccc(F)c1 [compound 101]
– | 14% | CCSc1nc2ccc(OC)cc2c(C)c1C(=O)NCc1ccc(F)cc1 [compound 102]
784 nM | 115% | CCSc1nc2ccc(C(F)(F)F)cc2c(C)c1C(=O)NCc1cccc(F)c1 [compound 103]
248 nM | 140% | CCSc1nc2cc(F)ccc2c(C)c1C(=O)NCc1cccc(F)c1 [compound 105]
216 nM | 143% | CCSc1nc2cc(F)ccc2c(C)c1C(=O)NCc1ccc(F)cc1 [compound 106]
499 nM | 161% | CCSc1nc2cc(C)ccc2c(C)c1C(=O)NCc1cccc(F)c1 [compound 107]
509 nM | 149% | CCSc1nc2cc(C)ccc2c(C)c1C(=O)NCc1ccc(F)cc1 [compound 108]
3990 nM | 66% | CCSc1nc2cc(C(F)(F)F)ccc2c(C)c1C(=O)NCc1cccc(O)c1 [compound 113]
169 nM | 175% | CSc1nc2cc(C(F)(F)F)ccc2c(C)c1C(=O)NCc1cccc(F)c1 [compound 114]
598 nM | 147% | CCSc1nc2ccc(F)cc2c(C)c1C(=O)NCc1cccc(F)c1 [compound 116]
147 nM | 149% | CCSc1nc2cc(F)c(F)cc2c(C)c1C(=O)NCc1cccc(F)c1 [compound 118]
1210 nM | 157% | CCSc1nc2c(F)cccc2c(C)c1C(=O)NCc1cccc(F)c1 [compound 120]
65 nM | 171% | CCSc1nc2cc(C(F)(F)F)ccc2c(Cl)c1C(=O)NCc1cccc(F)c1 [compound 122, 4-Chloro-2-ethylsulfanyl-N-[(3-fluorophenyl)-methyl]-7-(trifluoromethyl)-quinoline-3-carboxamide]
– | 8% | CCSc1nc2cccc(F)c2c(C)c1C(=O)NCc1cccc(F)c1 [compound 123]
– | 14% | CCSc1nc2cccc(OC)c2c(C)c1C(=O)NCc1cccc(F)c1 [compound 125]
– | 5% | CCSc1nc2cccc(OC)c2c(C)c1C(=O)NCc1ccc(F)cc1 [compound 126]
